The text below walks through data of patent US20110206689A1, “Molecular Determinants Associated With Prostate Cancer And Methods Of Use Thereof” (Dana-Farber Cancer Institute, Inc., priority 2010, published 2011).

Holding throughout (format): cell-based, human
For data set [1], the system named is TK1. As to the kind of experiment: Androgen induction of TK1 protein expression in LNCaP cells (immunoblot). Particulars: LNCaP cells in hormone depleted medium, 10 nM R1881, immunoblot. Here is the method:
FIG. 3. […] Androgen responsive LNCaP cells cultured in hormone depleted medium were treated with 10 nM of the synthetic androgen, R1881, for the indicated times, and TK1 expression was assayed by immunoblot analysis. […] Small hairpins targeting AR were introduced into LNCaP cells infected with TK1, or control uninfected LNCaP cells. Cell proliferation was monitored. Relative proliferation is normalized to the shGFP control.
(§1) Immunoblots were performed as previously described {Boehm, 2005 #51}. The following antibodies were used: TK1 (Abcam, ab57757), AR (Santa Cruz, sc-7305), Flag (Sigma, M2), PDK1 (Becton Dickinson, 611070), p-PDK1 (Becton Dickinson, 558395), AKT (Cell Signaling, 9272), p-AKT1-Thr308 (Cell Signaling, 4056), p-AKT1-Ser473 (Cell Signaling, 9271), p-AKT1-Thr450 (Cell Signaling, 9267), p-AKT1-Tyr326 (Cell Signaling, 2968), Actin (Santa Cruz, sc-47778).
TK1 has been reported to be induced by androgens in the rat prostate. […] To elucidate whether TK1 is sufficient to replace AR signaling in promoting cell proliferation and survival, we silenced AR expression in LNCaP cells by RNAi in the presence or absence of ectopic TK1 expression, and monitored cell death.
For orientation: In western blotting, separated proteins are transferred to a membrane and probed.

For data set [2], the system named is TK1. The data set can be described thus: Suppression of TK1 expression by shRNA in prostate cancer cell lines. The following applies: lentiviral shRNA. As for the experimental part: as §1
Stable suppression of TK1 and AR were accomplished by using the pLKO.1-puro lentiviral shRNA constructs previously described {Moffat, 2006 #52}. The sequences targeted by the hairpins are as follows: shTK1-3, […] (SEQ ID NO: 1); shTK1-4, […] (SEQ ID NO: 2); shTK1-5, […] (SEQ ID NO: 3); shAR-1, […] (SEQ ID NO: 4); shAR-4, […] (SEQ ID NO: 5); shAR-5, […] (SEQ ID NO: 6); shGFP, Experiments were performed in duplicate, in both the presence and absence of 1.5 ug/ml puromycin to monitor infection efficiency. Viable cells were counted using a Coulter Counter.
(§2) Next, we determined whether suppressing the expression of TK1 in prostate cancer cell lines that overexpress TK1 reverses their ability to proliferate or survive. […]

In data set [3] the test system is prostate cancer cell lines. As to the kind of experiment: Effect of TK1 shRNA on proliferation of prostate cancer cell lines (all cultures). Particulars: for cells remaining 12 days post infection: all cultures.
From the text: FIG. 2. TK1 overexpression synergizes with AKT1 to promote hormone independent prostate cancer. a) Androgen independent tumor formation. LHSR-AR cells were infected with the indicated constructs and injected subcutaneously into castrated mice, except where indicated. M-myristoylated; F-Flag tagged. b) AKT1 and TK1 promote nuclear translocation of AR independent of androgen. H&E and immunhistochemical staining for AR in subcutaneous tumor sections derived from LHSR-AR cells infected with the indicated constructs. Staining of androgen dependent GFP tumor is shown as control. Minimum of 3 tumors were stained per sample and representative images are shown. c) TK1 chromosomal amplification in hormone sensitive and refractory tumors. DNA from 16 hormone sensitive (HS) and 23 hormone refractory (HR) human prostate tumors (from FIG. 1b) were hybridized onto SNP arrays and analyzed for TK1 copy number gain (CNG). The number and percentage of tumors with and without amplification are indicated. d) TK1 protein expression in hormone sensitive and refractory tumors. Prostate tumor microarrays containing 73 hormone sensitive (HS) and 11 hormone resistant (HS) tumor cores were analyzed for TK1 protein expression by immunohistochemistry. The number and percentage of tumors negative and positive for TK1 expression are indicated. d) Immunoblot analysis for TK1 expression in the indicated prostate cancer cell lines. Actin was used to control for loading. e) Effect of TK1 suppression on the proliferation of prostate cancer cells. […] Relative cell number is normalized to the shGFP control.
Stable suppression of TK1 and AR were accomplished by using the pLKO.1-puro lentiviral shRNA constructs previously described {Moffat, 2006 #52}. The sequences targeted by the hairpins are as follows: shTK1-3, […] (SEQ ID NO: 1); shTK1-4, […] (SEQ ID NO: 2); shTK1-5, […] (SEQ ID NO: 3); shAR-1, […] […] Viable cells were counted using a Coulter Counter.
as §2

In a further data set the test system is C4-2 cells. As to the kind of experiment: Effect of TK1 suppression by shRNA on cell number of prostate cancer cells (viable cells counted with Coulter Counter). The following applies: C4-2 cultures, relative to shGFP control.
From the text: (§3) FIG. 2. TK1 overexpression synergizes with AKT1 to promote hormone independent prostate cancer. a) Androgen independent tumor formation. LHSR-AR cells were infected with the indicated constructs and injected subcutaneously into castrated mice, except where indicated. M-myristoylated; F-Flag tagged. b) AKT1 and TK1 promote nuclear translocation of AR independent of androgen. H&E and immunhistochemical staining for AR in subcutaneous tumor sections derived from LHSR-AR cells infected with the indicated constructs. Staining of androgen dependent GFP tumor is shown as control. Minimum of 3 tumors were stained per sample and representative images are shown. c) TK1 chromosomal amplification in hormone sensitive and refractory tumors. DNA from 16 hormone sensitive (HS) and 23 hormone refractory (HR) human prostate tumors (from FIG. 1b) were hybridized onto SNP arrays and analyzed for TK1 copy number gain (CNG). The number and percentage of tumors with and without amplification are indicated. d) TK1 protein expression in hormone sensitive and refractory tumors. Prostate tumor microarrays containing 73 hormone sensitive (HS) and 11 hormone resistant (HS) tumor cores were analyzed for TK1 protein expression by immunohistochemistry. The number and percentage of tumors negative and positive for TK1 expression are indicated. d) Immunoblot analysis for TK1 expression in the indicated prostate cancer cell lines. Actin was used to control for loading. e) Effect of TK1 suppression on the proliferation of prostate cancer cells. Cells were infected with three different hairpins targeting TK1 and a control hairpin targeting GFP, and cell numbers determined 5 days post infection. Relative cell number is normalized to the shGFP control.
(§4) LHSR-AR {Berger, 2004 #15}, LNCaP {Horoszewicz, 1980 #23}, C4-2 {Wu, 1994 #18}, CL-1 {Patel, 2000 #16}, LNCaP-abl {Culig, 1999 #49} and LAPC4 {Klein, 1997 #34} cells have previously been described. LHSR-AR cells were cultured in PrEGM with growth supplements (Lonza). LNCaP were cultured in RPMI supplemented with 10% fetal bovine serum, 1 mM sodium pyruvate and 10 mM Hepes. C4-2, CL-1 and LNCaP-abl were cultured in phenol red free RMPI supplemented with 10% charcoal stripped fetal bovine serum, 1 mM sodium pyruvate and 10 mM Hepes. LAPC4 cells were cultured in IMDM supplemented with 10% fetal bovine serum and 1 nM R1881.
(§5) Stable suppression of TK1 and AR were accomplished by using the pLKO.1-puro lentiviral shRNA constructs previously described {Moffat, 2006 #52}. The sequences targeted by the hairpins are as follows: shTK1-3, […] […] Viable cells were counted using a Coulter Counter.
as §2

In the next data set the test system is CL-1 cells. The description is as above. Particulars: relative to shGFP control.
From the text: as §3, §4, §5, §2

With `C[C@]1(O)CC[C@H]2[C@@H]3CCC4=CC(=O)CCC4=C3C=C[C@@]21C` [R1881], the TK1 protein expression entry with TK1 [1] was “androgen induced”.

Turning to “shTK1-3: pLKO.1-puro lentiviral shRNA targeting TK1 sequence AGACCGTAATTGTGGCTGCAC (SEQ ID NO: 1) (target site or template, no part of the molecule)”, the “suppression of TK1 expression” value with TK1 [2] was “did not efficiently suppress TK1 expression”. Besides, the proliferation result in data set [3] (prostate cancer cell lines, 5 days post infection) is “did not affect proliferation”.

As for “shTK1-5: pLKO.1-puro lentiviral shRNA targeting TK1 sequence TGTCGGCTCTGCTACTTCAAG (SEQ ID NO: 3) (target site or template, no part of the molecule)”, the “cell number 5 days post infection” value with C4-2 cells was “reduced cell number”; in the data set on CL-1 cells, “did not significantly affect”. Moreover, the “cells remaining 12 days post infection” value in data set [3] is recorded as “few cells remaining”.

On to “shTK1-4: pLKO.1-puro lentiviral shRNA targeting TK1 sequence GGGAAGCCGCCTATACCAAGA (SEQ ID NO: 2) (target site or template, no part of the molecule)”, for which the “cell number 5 days post infection” value is given as “reduced cell number” in the data set with C4-2 cells and “did not significantly affect” in the data set on CL-1 cells. In addition, the “cells remaining 12 days post infection” value in data set [3] is “few cells remaining”.
